Measurements as given in paper PMC9140920 (International Journal of Molecular Sciences, 2022).
“Also recorded” adds a separate entry of the source. Where two headings read alike, the source gives them in different places.

Key:
C-PARP1 in TM4 cells = assay: Western blot of cleaved PARP1 (C-PARP1); format: cell-based, mouse; conditions: 48 h exposure, ratio of cleaved PARP1 to total PARP1, vs vCTR
Protocol: The protein extracts were run on a 10% SDS-PAGE and transferred onto PVDF filters and maintained at room temperature (RT) for 2 h in 5% non-fat dry milk diluted in TBST (containing 0.1% Tween-20). After washing, membranes were incubated O/N at 4 °C with the primary antibody anti-PARP1 (Cell Signaling, Danvers, MA, USA) diluted to 1:1000 in 1% non-fat dry milk in TBST. After washing, PVDF filters were incubated for 1 h at RT with the anti-rabbit (1:5000) HRP-conjugated secondary antibody (Immunological Sciences, by Società Italiana Chimici, Rome, Italy). ECL West Pico Plus chemiluminescent substrate was used to detect signals using a ChemiDoc XRSplus imaging system (Bio-Rad Laboratories, Hercules, CA, USA). The optical densities of blot bands were quantified using ImageJ software (US National Institutes of Health, Bethesda, MD, USA); the graph values represent the ratios of cleaved PARP1 to total PARP1. ß-actin was used as loading control.

[1] = test system: ROS production in TM4 cells; assay: Intracellular ROS detection (DCFH-DA fluorescence); format: cell-based, mouse; conditions: 3 h of incubation, vs vCTR
Protocol: The intracellular ROS production was detected by using 2′,7′-dichlorofluorescein diacetate (DCFH-DA) (Molecular Probes, Eugene, OR, USA), as previously reported. In brief, after 30 min and 3 h of treatments, samples were incubated with 1 µM DCFH-DA at 37 °C for 30 min. Subsequently, cells were collected and twice washed in ice-cold PBS; samples were then analysed using flow cytometry to detect the presence of intracellular ROS at the wavelengths of 502 and 524 nm, for the excitation and the emission, respectively; the fluorescence intensity was detected with a Perkin Elmer LS-50B spectrofluorometer. Cells treated with 500 µM tert-butyl hydroperoxide (t-BHP) for 1.5 h were used as a positive control for ROS generation.

[2] = cited from earlier work
ΔΨm in TM4 cells = assay: Mitochondrial membrane potential (ΔΨm) by JC-1 flow cytometry; format: cell-based, mouse; conditions: 3 h of incubation, JC-1, vs vCTR
Protocol: Variations of the ΔΨm in samples exposed to azoles for 3 h were assessed using the lipophilic cation dye JC-1, as previously reported. Cells (1 × 10^6 per sample) were stained for 30 min at 37 °C in a humidified atmosphere, with 3 µM JC-1 (Molecular Probes, Eugene, OR, USA) and collected; after washing in PBS, cells were analysed using flow cytometry. To assure a positive control for the abatement of the ΔΨm, the cells were cultured in the presence of […] rotenone (Sigma-Aldrich, St. Louis, MO, USA) for 1 h at standard conditions, and then incubated with the potentiometric dye as described above. Experiments were performed in triplicate and analysed by an FACS Calibur instrument (BD Instruments Inc., San José, CA, USA). The fluorescent signals from JC-1 monomers or aggregates were detected through the FL-1 (525 ± 5 nm) and FL-2 bandpass filters (575 ± 5 nm), respectively; the forward and side scatter channels gated a minimum of 1 × 10^4 cells on the major population of normal-sized cells. ΔΨm data assessment was performed by the Cell Quest software (BD Instruments Inc., San José, CA, USA).

TM4 cells = assay: Annexin V-FITC / propidium iodide assay of apoptosis and necrosis; format: cell-based, mouse; conditions: for apoptosis induction / cell death: 48 h, annexin V/PI, vs vCTR
Protocol: (§1) Cells were maintained in standard conditions for 24 h before treatments. […] All azoles were dissolved in DMSO. In an effort to avoid a possible experimental artifact with vehicles, experiments were performed including control groups in which the effect of the drug vehicle alone was tested (vehicle control, vCTR). In these experimental conditions, we excluded any negative effects of DMSO that is biocompatible with no biological effect per se. For experiments with N-acetylcysteine (NAC), 24 h after seeding cells were pre-treated for 1 h with the ROS inhibitor (1 mM) and then maintained in co-treatment with azoles for 48 h.
Treated and control cells (vCTR) (1 × 10^6) were collected; after washing in ice-cold PBS, samples were resuspended in 1 mL of binding buffer (10 mM HEPES, 140 mM NaCl, and 2.5 mM CaCl2, at pH 7.4) containing 10 µg/mL Annexin V-FITC and 1 µg/mL PI. After staining (1 h incubation at room temperature), cells were then washed and subsequently analysed using an FACS Calibur instrument (BD Instruments Inc., San José, CA, USA). Cells treated with 25 µM Etoposide (Eto) for 24 h were used as a positive control for apoptosis induction. Data from 10,000 events per sample were collected and analysed using an FACS Calibur instrument (BD Instruments Inc., San José, CA, USA ) equipped with cell cycle analysis software (Modfit LT for Mac V3.0) in order to calculate the percentages of apoptotic and necrotic cells.

TM4 mouse Sertoli cells = assay: Cell growth and viability (MTT), dose-response of the drugs alone; format: cell-based; conditions: for IC20: read-out: IC20 ± SE; for IC80: read-out: IC80 ± SE
Protocol: as §1, with “In these experimental conditions, we excluded any negative effects of DMSO that is biocompatible with no biological effect per se.” left out
TM4 cells were seeded at a density of 1 × 10^4/cm^2, and cultures incubated at standard conditions in the presence or the absence of azoles to reach final concentrations ranging from 0.078 µM up to 320 µM in culture medium. Cell growth and viability were assessed at 24 and 48 h by Trypan-blue exclusion assay and MTT (3-(4,5-dimethylthiazol-2-yl)-2,5-diphenyl-2H-tetrazolium-bromide) colorimetric method (Sigma-Aldrich, St. Louis, MO, USA), quantifying the metabolic efficiency of living cells.
The Interaction Index (II) was calculated, as previously described, by modifying the Chou and Talalay equation [78]. Specifically, Chou and Talalay’s median-effect method estimates the IC50 and the sigmodicity coefficient m values using linear regression of the linearised dose-response curve.
For a two-drug assay, II is the summation of the ratios of the doses (Dn) of the drugs in combination, and the concentrations of the two drugs alone (IDx,n), to obtain a fraction x of cells affected by drug combinations (Fa). IDx,n is estimated by the following equation:(1) IDx,n=IC50(Fa/1−Fa)^1/mn

GSH in TM4 cells = assay: GSH and GSSG intracellular content (colourimetric assay); format: cell-based, mouse; conditions: 3 h of incubation, vs vCTR
Protocol: GSH and GSSG intracellular contents were detected by using a colourimetric assay (ThermoFisher Scientific—Life Technologies Corp, Carlsband, CA, USA). The analyses were performed according to the manufacturer’s instructions after treatments with azoles at 3 h of incubation; in brief, cell lysates were prepared in ice-cold 5% 5-sulfo-salicylic acid dehydrate (Sigma-Aldrich, St. Louis, MO, USA), and subsequently resuspended in the supplied diluent before adding them into a 96-well microplate. After promptly adding substrate, the reaction with the free thiol group of GSH initiates, producing a highly coloured product. The relative absorbance was detected at 405 nm. Assays were performed at least in triplicate for the GSH and the GSSG content detection. To determine oxidised glutathione content, 2-vinylpyridine (2-VP) (Sigma-Aldrich, St. Louis, MO, USA) was added to block free GSH or other thiols contained in each sample; the specific concentration of the GSSG was determined by performing a 2-VP-treated samples standard curve.

[3] = set-up: method as in PMID 42148393; conditions: cattle; cited from earlier work
[4] = test system: antioxidant enzymes in TM4 cells; assay: Antioxidant enzymatic activity assays (SOD, CAT, GPx, GR, GST); format: cell-based, mouse
Protocol: The antioxidant enzymatic activities were performed spectrophotometrically, as previously described. Briefly, after 3 h of incubation with azoles, cells were washed in ice-cold PBS, resuspended in buffer containing 50 mM Tris–HCl (pH 7.4), 1% (v/v) Triton X-100, 1 mM EDTA, and then disrupted by three freeze-thawing cycles. After centrifugation (17,000 g, 10 min, 4 °C), the supernatants were collected for protein quantification and subsequently analysed.
The glutathione reductase (GR) activity was evaluated spectrophotometrically by measuring NADPH oxidation (340 nm at 25 °C). The reaction mix contained 50 mM potassium phosphate buffer (pH 7.0), 1 mM GSSG, 0.2 mM NADPH, 1 mM EDTA, and the adequate protein amount.
Total glutathione peroxidase (GPx) activity (se-dependent and se-independent) of each cell extract was assayed spectrophotometrically by following the NADPH oxidation (340 nm). The assay mixture contained 50 mM potassium phosphate buffer (pH 7.0), 1 mM GSH, 0.01 U/mL GSH reductase, 1 mM EDTA, 0.2 mM NADPH, 70 µM t-BHP, and the adequate amount of the protein extract. The glutathione transferase (GST) activity was evaluated by determining the GSH conjugation rate to 1-chloro-2,4- dinitrobenzene at 340 nm. The reaction mixture was prepared with 0.1 M potassium phosphate buffer (pH 6.5), 2 mM GSH, 1 mM 1-chloro-2,4-dinitrobenzene, and a determined amount of the supernatants.
The catalase (CAT) activity was evaluated, by monitoring at 240 nm its 10-millimolar decomposition. One unit was defined as 1 µmol of H2O2 reduced/min at 25 °C.
The superoxide dismutase (SOD) activity was determined using a colourimetric activity assay (ThermoFisher Scientific—Life Technologies Corp, Carlsband, CA, USA). The assay was conducted according to manufacturer’s instructions; briefly, it measures all types of SOD activity (including Cu/Zn, Mn, and FeSOD). Samples were resuspended in specific coloured diluent and added to a 96-well microplate. […] SOD-specific activity was expressed as U/mg protein, while the specific activity of all the other enzymes analysed was expressed as nmol/min/mg protein.

[5] = cited from earlier work; remark: listed apart in the source
[6] = Mus musculus, TM4 cells, 48 h of exposure, drug alone, 20% fraction of cells affected (Fa), non-linear fitting
[7] = Mus musculus, TM4 cells, 48 h of exposure, drug alone, 80% fraction of cells affected (Fa), non-linear fitting

For `CC(=O)N1CCN(c2ccc(OCC3COC(Cn4ccnc4)(c4ccc(Cl)cc4Cl)O3)cc2)CC1` (stereo not drawn) [KCZ, ketoconazole], the C-PARP1 protein levels (C-PARP1 in TM4 cells) is given as “significantly increased”, the “increase in ROS production” value [1] is given as ~ 1.7 fold and the plasma concentration ([2]; human subjects, after treatment with 400 mg/day therapy) is given as 24.89 µM. The “systemic absorption after topical administration” value ([2]; human, topical KCZ) was “little systemic absorption”, the “mean intensity of red-orange fluorescence (MFI) of ΔΨm high population” value (ΔΨm in TM4 cells) was “increases in MFI” and the “apoptosis induction / cell death” value (TM4 cells) was “a level of apoptosis-induction occurred”. The IC50 (TM4 mouse Sertoli cells; Mus musculus, TM4, 48 h, TM4 cells, 48 h of exposure, drug alone, 50% fraction of cells affected (Fa), non-linear fitting, read-out: IC50 ± SE) was about 73 µM, the IC20 (TM4 mouse Sertoli cells; [6]) was 18.3 ± 2.4 µM and the IC80 (TM4 mouse Sertoli cells; [7]) was 293 ± 38.1 µM. It also gave an IC50 (TM4 mouse Sertoli cells; TM4 cells, 48 h of exposure, drug alone, 50% fraction of cells affected (Fa), non-linear fitting, read-out: IC50 ± SE) of 73.2 ± 9.5 µM.
For `CCCN(CCOc1c(Cl)cc(Cl)cc1Cl)C(=O)n1ccnc1` [PCZ, prochloraz], the “intracellular GSH content” value (GSH in TM4 cells) is listed as “only a slight decrease”, the “increase in ROS production” value [1] is listed as ~ 1.7 fold and the “residues in edible tissues (moderate bioaccumulation)” value [3] is listed as at least 0.01 mg/kg. For the same compound, the “SOD/(GPx + CAT) ratio” value ([4]; 3 h of exposure, vCTR = 0.46 ± 0.067) was 0.0972 ± 0.019, the GST activity ([4]; 3 h of incubation, vs controls) was “substantially reduced” and the “GR/(GPx + GST) ratio” value ([4]; 3 h of incubation, vs vCTR) was “positive and significant shift”. For the same compound, the “mean intensity of red-orange fluorescence (MFI) of ΔΨm high population” value (ΔΨm in TM4 cells) was “increases in MFI”, the “apoptosis induction / cell death” value (TM4 cells) was “no significant differences; also recorded: not able to induce cell death” and the IC20 (TM4 mouse Sertoli cells; Mus musculus, TM4, 48 h) was 18.5 ± 3.9 µM. It also gave an IC50 (TM4 mouse Sertoli cells; Mus musculus, TM4, 48 h, read-out: IC50 ± SE, TM4 cells, 48 h of exposure, drug alone, 50% fraction of cells affected (Fa), non-linear fitting) of about 73 µM, an IC80 (TM4 mouse Sertoli cells; Mus musculus, TM4, 48 h) of 295 ± 62.3 µM and an IC50 (TM4 mouse Sertoli cells; read-out: IC50 ± SE, TM4 cells, 48 h of exposure, drug alone, 50% fraction of cells affected (Fa), non-linear fitting) of 73.8 ± 15.6 µM.
With `OC(Cn1cncn1)(Cn1cncn1)c1ccc(F)cc1F` [FCZ, fluconazole] the “IC20 ± SE” value (TM4 mouse Sertoli cells; TM4 cells, 48 h of exposure, drug alone, 20% fraction of cells affected (Fa), non-linear fitting) was “Not detectable”, the “IC50 ± SE” value (TM4 mouse Sertoli cells; TM4 cells, 48 h of exposure, drug alone, 50% fraction of cells affected (Fa), non-linear fitting) was “Not detectable” and the “IC80 ± SE” value (TM4 mouse Sertoli cells; TM4 cells, 48 h of exposure, drug alone, 80% fraction of cells affected (Fa), non-linear fitting) was “Not detectable”. For the same compound, the cytotoxic effects (TM4 mouse Sertoli cells; TM4 cells, up to 320 µM, individually or in combination) was “no cytotoxic effects”.
With `CC(=O)N[C@@H](CS)C(=O)O` [NAC, N-acetylcysteine] the “effect on KCZ- and PCZ/KCZ-induced apoptosis and necrosis” value (TM4 cells; co-incubation for 48 h with 1 mM NAC) was “significantly reduced”.
For `Clc1ccc(COC(Cn2ccnc2)c2ccc(Cl)cc2Cl)c(Cl)c1` (stereo not drawn) [MCZ, miconazole], the “log Kow (log octanol-water partition coefficient)” value [5] is given as 6.35, the C-PARP1 protein levels (C-PARP1 in TM4 cells) is given as “significantly increased” and the “increase in ROS production” value [1] is given as ~ 1.4 fold. For the same compound, the “apoptosis induction / cell death” value (TM4 cells) was “a level of apoptosis-induction occurred”, the IC20 (TM4 mouse Sertoli cells; [6]) was 8.6 ± 0.6 µM and the IC80 (TM4 mouse Sertoli cells; [7]) was 138 ± 9.8 µM.
